Experimental data from PMC8102410, “Coordinate regulation of systemic and kidney tryptophan metabolism by the drug transporters OAT1 and OAT3” (The Journal of Biological Chemistry, 2021).

Experiments:
Assay type in all cases: cell-based
OAT1 = target: T1, OAT1 (Homo sapiens, UniProt Q4U2R8); test: inhibition of 6-carboxyfluorescein uptake in HEK-293 cells stably overexpressing human OAT1
T1 construct: gene SLC22A6
T1 sequence (Q4U2R8 1-563): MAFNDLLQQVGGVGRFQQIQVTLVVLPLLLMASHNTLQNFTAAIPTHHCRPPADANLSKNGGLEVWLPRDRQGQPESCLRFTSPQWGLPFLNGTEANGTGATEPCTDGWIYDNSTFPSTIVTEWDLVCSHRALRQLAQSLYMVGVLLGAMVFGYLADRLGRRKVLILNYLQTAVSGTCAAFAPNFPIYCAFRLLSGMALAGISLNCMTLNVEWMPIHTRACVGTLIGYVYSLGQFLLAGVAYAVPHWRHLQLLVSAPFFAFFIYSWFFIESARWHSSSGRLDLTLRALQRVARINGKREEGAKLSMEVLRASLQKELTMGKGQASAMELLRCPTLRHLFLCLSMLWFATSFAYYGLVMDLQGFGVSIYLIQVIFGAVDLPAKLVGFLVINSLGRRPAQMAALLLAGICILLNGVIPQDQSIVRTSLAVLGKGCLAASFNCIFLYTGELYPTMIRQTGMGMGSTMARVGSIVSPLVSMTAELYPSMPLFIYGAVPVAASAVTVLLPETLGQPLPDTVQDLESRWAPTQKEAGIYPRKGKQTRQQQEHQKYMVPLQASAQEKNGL

OAT3 [1] = target: T2, OAT3 (Homo sapiens, UniProt Q8TCC7); test: inhibition of 6-carboxyfluorescein uptake in HEK-293 cells stably overexpressing human OAT3
T2 construct: gene SLC22A8
T2 sequence (Q8TCC7 1-542): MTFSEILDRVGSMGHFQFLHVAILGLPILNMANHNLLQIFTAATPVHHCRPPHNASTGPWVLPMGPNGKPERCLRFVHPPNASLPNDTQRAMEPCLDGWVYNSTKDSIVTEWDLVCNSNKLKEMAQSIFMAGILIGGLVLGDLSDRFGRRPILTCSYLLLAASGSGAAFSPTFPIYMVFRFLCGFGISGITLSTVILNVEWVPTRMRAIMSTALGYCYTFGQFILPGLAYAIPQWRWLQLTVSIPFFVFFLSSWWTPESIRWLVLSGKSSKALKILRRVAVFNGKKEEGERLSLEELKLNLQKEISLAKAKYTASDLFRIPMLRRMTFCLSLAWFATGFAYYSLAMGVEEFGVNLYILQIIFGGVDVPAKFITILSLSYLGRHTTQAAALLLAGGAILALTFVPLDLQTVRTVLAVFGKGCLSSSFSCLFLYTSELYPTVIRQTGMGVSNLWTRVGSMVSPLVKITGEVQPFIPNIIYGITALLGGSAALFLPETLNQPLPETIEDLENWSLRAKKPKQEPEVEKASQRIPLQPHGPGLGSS

OAT3 [2] = target: T2, OAT3; test: inhibition of 6-carboxyfluorescein uptake in HEK-293 cells stably overexpressing human OAT3 (data not shown)

Row | SMILES | IC50 (OAT1) | IC50 (OAT3 [1]) | IC50 (OAT3 [2])
1 | O=C(O)[C@@H](O)Cc1c[nH]c2ccccc12 [ILA, indolelactic acid] | 229 ± 74.6 µM | 74.5 ± 23.3 µM | 
2 | NCCc1c[nH]c2ccc(O)cc12 [serotonin] |  |  | 288 ± 167 µM
